According to patent US11999746B2, “Compounds” (GlaxoSmithKline Intellectual Property Development Limited, priority 2014, dated 2024):
Counter-ions that a name gives are not always drawn.

How the values were obtained:
[1] = biological target: T1, Lp-PLA2 in human plasma (Homo sapiens, UniProt Q13093); assay: (3b) Lp-PLA2 human plasma alternative Thio-PAF assay; type: biochemical; conditions: (3b) alternative Thio-PAF assay, pooled human plasma; Examples of 266-412 were tested here; read-out: pIC50 in the Lp-PLA2 human plasma assay (converted)
T1 construct: from tissue; host or cells: pooled human plasma
T1 sequence (Q13093 22-441): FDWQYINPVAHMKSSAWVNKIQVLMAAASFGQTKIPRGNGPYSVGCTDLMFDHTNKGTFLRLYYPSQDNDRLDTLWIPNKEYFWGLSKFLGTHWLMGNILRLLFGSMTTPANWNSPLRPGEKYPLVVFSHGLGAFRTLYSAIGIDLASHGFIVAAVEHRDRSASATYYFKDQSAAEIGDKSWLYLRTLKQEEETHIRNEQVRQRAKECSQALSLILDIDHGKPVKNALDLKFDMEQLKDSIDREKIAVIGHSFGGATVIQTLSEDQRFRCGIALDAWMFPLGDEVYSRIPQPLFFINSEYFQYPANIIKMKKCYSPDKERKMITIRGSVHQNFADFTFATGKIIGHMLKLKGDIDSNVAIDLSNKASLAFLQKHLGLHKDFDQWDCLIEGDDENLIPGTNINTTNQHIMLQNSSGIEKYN
Summary of the method: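 Pooled human plasma was preincubated with compound for 15 min at RT. Substrate solution (2 mM 2-thio-PAF, 52 μM CPM, 2.5 mM NEM in 50 mM HEPES pH 7.4, 150 mM NaCl, 1 mM CHAPS; pre-addition concentrations) was added, and the reaction was quenched with 5% TFA after 3 min. Fluorescence was read at ex 380/em 485 nm and fitted to give pIC50.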

[2] = biological target: T2, recombinant human Lp-PLA2 (Homo sapiens, UniProt Q13093); assay: (1b) hrThioPAF assay, recombinant human Lp-PLA2; type: biochemical; conditions: Examples 266-412 were tested here, one experiment or average of multiple experiments, read-out: rhLp-PLA2 (pIC50) (converted)
T2 sequence (Q13093 22-441): T1 sequence (Q13093 22-441)
Summary of the method: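 Fluorogenic assay: 20 pM rhLp-PLA2 in 50 mM HEPES pH 7.4, 150 mM NaCl, 1 mM CHAPS with 1:3 serially diluted compounds; substrate mix of 40 μM 2-thio-PAF, 40 μM CPM, 400 μM NEM (pre-addition levels). 20 min at 25 °C in the dark; fluorescence ex 380/em 485 nm, pIC50 by curve fitting.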

| IC50 [1] [nM] | IC50 [2] [nM] | Compound |
| --- | --- | --- |
| ≤ 100 | ≤ 10000 | CC(C)(C)C(=O)N1CCN2c3cc(OCc4ccc(F)c(F)c4)nc(=O)n3CC2C1 (stereo not shown) [Example E332, 7-((3,4-Difluorobenzyl)oxy)-2-pivaloyl-3,4,11,11a-tetrahydro-1H-pyrazino[1′,2′:3,4]imidazo[1,2-c]pyrimidin-9(2H)-one] |
| ≤ 100 | ≤ 10000 | NC1(C(=O)N2CCN3c4cc(OCc5ccc(F)c(F)c5)nc(=O)n4CC3C2)CC1 (stereo not shown) [Example E333, 2-(1-Aminocyclopropanecarbonyl)-7-((3,4-difluorobenzyl)oxy)-3,4,11,11a-tetrahydro-1H-pyrazino[1′,2′:3,4]imidazo[1,2-c]pyrimidin-9(2H)-one hydrochloride] |
| ≤ 100 | ≤ 10000 | CC(C)(N)CC(=O)N1CCN2c3cc(OCc4ccc(F)c(F)c4)nc(=O)n3CC2C1 (stereo not shown) [Example E334, 2-(3-Amino-3-methylbutanoyl)-7-((3,4-difluorobenzyl)oxy)-3,4,11,11a-tetrahydro-1H-pyrazino[1′,2′:3,4]imidazo[1,2-c]pyrimidin-9(2H)-one] |
| ≤ 100 | ≤ 10000 | CC(C)(N)C(=O)N1CCN2c3cc(OCc4ccc(F)c(F)c4)nc(=O)n3CC2C1 (stereo not shown) [Example E335, 2-(2-Amino-2-methylpropanoyl)-7-((3,4-difluorobenzyl)oxy)-3,4,11,11a-tetrahydro-1H-pyrazino[1,2′:3,4]imidazo[1,2-c]pyrimidin-9(2H)-one] |
| ≤ 100 | ≤ 10000 | O=c1nc(OCc2ccc(F)c(F)c2)cc2n1CC1COCCN21 (stereo not shown) [Example E336, 7-((3,4-Difluorobenzyl)oxy)-3,4,11,11a-tetrahydropyrimido[6′,1′:2,3]imidazo[5,1-c][1,4] oxazin-9(1H)-one] |
| ≤ 100 | ≤ 10000 | CN(C)CCC(=O)N1CCN2c3cc(OCc4ccc(F)c(F)c4)nc(=O)n3CC2C1 (stereo not shown) [Example E337, 7-((3,4-Difluorobenzyl)oxy)-2-(3-(dimethylamino)propanoyl)-3,4,11,11a-tetrahydro-1H-pyrazino[1,2′:3,4]imidazo[1,2-c]pyrimidin-9(2H)-one] |
| ≤ 100 | 10 | O=c1nc(OCc2ccc(F)c(F)c2)cc2n1CC1CN(CC(F)(F)F)CCN21 (stereo not shown) [Example E338, 7-((3,4-Difluorobenzyl)oxy)-2-(2,2,2-trifluoroethyl)-3,4,11,11a-tetrahydro-1H pyrazino[1′,2′:3,4]imidazo[1,2-c]pyrimidin-9(2H)-one trifluoroacetate] |
| ≤ 100 | ≤ 10000 | O=C([C@@H]1CCN1)N1CCN2c3cc(OCc4ccc(F)c(F)c4)nc(=O)n3CC2C1 (stereo partly drawn) [Example E339, 2-((S)-azetidine-2-carbonyl)-7-((3,4-difluorobenzyl)oxy)-3,4,11,11a-tetrahydro-1H-pyrazino[1′,2′:3,4]imidazo[1,2-c]pyrimidin-9(2H)-one] |
| ≤ 100 | ≤ 10000 | O=C([C@@H]1CCCN1)N1CCN2c3cc(OCc4ccc(F)c(F)c4)nc(=O)n3CC2C1 (stereo partly drawn) [Example E340, 7-((3,4-Difluorobenzyl)oxy)-2-((S)-pyrrolidine-2-carbonyl)-3,4,11,11a-tetrahydro-1H-pyrazino[1,2′:3,4]imidazo[1,2-c]pyrimidin-9(2H)-one] |
| ≤ 100 | ≤ 10000 | O=C([C@@H]1C[C@H](F)CN1)N1CCN2c3cc(OCc4ccc(F)c(F)c4)nc(=O)n3CC2C1 (stereo partly drawn) [Example E341, 7-((3,4-Difluorobenzyl)oxy)-2-((2S,4S)-4-fluoropyrrolidin-2-carbonyl)-3,4,11,11a-tetrahydro-1H-pyrazino[1′,2′:3,4]imidazo[1,2-c]pyrimidin-9(2H)-one] |
| ≤ 100 | ≤ 10000 | O=C([C@@H]1CC(F)(F)CN1)N1CCN2c3cc(OCc4ccc(F)c(F)c4)nc(=O)n3CC2C1 (stereo partly drawn) [Example E342, 7-((3,4-Difluorobenzyl)oxy)-2-((S)-4,4-difluoropyrrolidin-2-carbonyl)-3,4,11,11a-tetrahydro-1H-pyrazino[1,2′:3,4]imidazo[1,2-c]pyrimidin-9(2H)-one] |
| ≤ 100 | ≤ 10000 | O=C([C@H]1CCCN1)N1CCN2c3cc(OCc4ccc(F)c(F)c4)nc(=O)n3CC2C1 (stereo partly drawn) [Example E343, 7-((3,4-Difluorobenzyl)oxy)-2-((R)-pyrrolidine-2-carbonyl)-3,4,11,11a-tetrahydro-1H-pyrazino[1,2′:3,4]imidazo[1,2-c]pyrimidin-9(2H)-one] |
| ≤ 100 | ≤ 10000 | NC1(C(=O)N2CCN3c4cc(OCc5ccc(F)c(F)c5)nc(=O)n4CC3C2)CCC1 (stereo not shown) [Example E344, 2-(1-Aminocyclobutanecarbonyl)-7-((3,4-difluorobenzyl)oxy)-3,4,11,11a-tetrahydro-1H-pyrazino[1,2′:3,4]imidazo[1,2-c]pyrimidin-9(2H)-one] |
| ≤ 100 | ≤ 10000 | NC1(C(=O)N2CCN3c4cc(OCc5ccc(F)c(F)c5)nc(=O)n4CC3C2)CCOCC1 (stereo not shown) [Example E345, 2-(4-Aminotetrahydro-2H-pyran-4-carbonyl)-7-((3,4-difluorobenzyl)oxy)-3,4,11,11a-tetrahydro-1H-pyrazino[1,2′:3,4]imidazo[1,2-c]pyrimidin-9(2H)-one] |
| ≤ 100 | ≤ 10000 | CN(C)CC(=O)N1CCN2c3cc(OCc4ccc(F)c(F)c4)nc(=O)n3CC2C1 (stereo not shown) [Example E346, 7-((3,4-Difluorobenzyl)oxy)-2-(2-(dimethylamino)acetyl)-3,4,11,11a-tetrahydro-1H-pyrazino[1,2′:3,4]imidazo[1,2-c]pyrimidin-9(2H)-one] |
| ≤ 100 | ≤ 10000 | NC1(C(=O)N2CCN3c4cc(OCc5ccc(F)c(F)c5)nc(=O)n4CC3C2)CCCCC1 (stereo not shown) [Example E347, 2-(1-Aminocyclohexanecarbonyl)-7-((3,4-difluorobenzyl)oxy)-3,4,11,11a-tetrahydro-1H-pyrazino[1,2′:3,4]imidazo[1,2-c]pyrimidin-9(2H)-one] |
| ≤ 100 | ≤ 10000 | N#Cc1cc(COc2cc3n(c(=O)n2)CC2CNC(=O)CN32)ccc1F (stereo not shown) [Example E349, 5-(((3,9-Dioxo-2,3,4,9,11,11a-hexahydro-1H-pyrazino[1′,2′:3,4]imidazo[1,2-c]pyrimidin-7-yl)oxy)methyl)-2-fluorobenzonitrile] |
| ≤ 100 | ≤ 1 | O=C1CN2c3cc(OCc4cc(F)c(Oc5ccnc(C(F)(F)F)c5)c(F)c4)nc(=O)n3CC2CN1 (stereo not shown) [Example E351, 7-((3,5-Difluoro-4-((2-(trifluoromethyl)pyridin-4-yl)oxy)benzyl)oxy)-11,11a-dihydro-1H-pyrazino[1′,2′:3,4]imidazo[1,2-c]pyrimidine-3,9(2H,4H)-dione] |
| ≤ 100 | 0.501 | O=C1CN2c3cc(OCc4cc(F)c(Oc5cncc(C(F)(F)F)c5)c(F)c4)nc(=O)n3CC2CN1 (stereo not shown) [Example E352, 7-((3,5-Difluoro-4-((5-(trifluoromethyl)pyridin-3-yl)oxy)benzyl)oxy)-11,11a-dihydro-1H-pyrazino[1,2′:3,4]imidazo[1,2-c]pyrimidine-3,9(2H,4H)-dione] |
| ≤ 100 | ≤ 10000 | O=C1CN2c3cc(OCc4ccc(F)c(F)c4)nc(=O)n3CC2CN1 (stereo not shown) [Example E356, 7-((3,4-difluorobenzyl)oxy)-11,11a-dihydro-1H-pyrazino[1′,2′:3,4]imidazo[1,2-c]pyrimidine-3,9(2H,4H)-dione] |
